Results published in patent US20250073257A1, “SMALL MOLECULE AND SIRNA INHIBITORS AGAINST LIPOCALIN-2” (UNIVERSITY OF PUERTO RICO, priority 2021, published 2025).
“Also recorded” adds a separate entry of the source.

Columns and labels:
Caspase-3 = Caspase-3 fluorometric activity assay; type: cell-based, human; conditions: positive control, 0.5 nM; cell line not given
Description: Caspase-3 activity was assessed using a caspase-3/CPP32 fluorometric assay kit (Bio Vision, CA, USA) as described in the manufacturer's protocol, with some modifications. Briefly, SUM149 (5.0×10^4 cells/mL) and MDA-IBC3 (5.5×10^4 cells/mL) were seeded in 10 cm Petri dishes and transiently transfected with siRNAs as above described. Docetaxel (0.5 nM final concentration) was used as a positive control. Seventy-two hours post-transfection cells were collected, protein extracts were obtained and incubated with the Asp-Glu-Val-Asp (DEVD) peptide substrate—which is conjugated to the 7-amino-4-trifluoromethyl coumarin (AFC)—at 37° C. for 60 min. Releasing of AFC was measured with a fluorometric plate reader (Varioskan LUX, ThermoFisher, USA) at an excitation wavelength of 400 nm and an emission wavelength of 505 nm. The fold-change increase in caspase-3 activity was determined by comparing the release of AFC from the siRNA-transfected cells with the AFC release by the untreated cells.

SUM149 cells [1] = assay: Colony formation (clonogenic) assay, SUM149 cells; type: cell-based, human; conditions: vs DMSO
Description: Cell growth was assessed by colony formation assays: MDA-IBC3 cells (5.5×10^4 cells/mL) or SUM149 (5.0×10^4 cells/mL) were seeded into 6-well plates. Twenty-four hours later, siRNAs were added to the cells. Twenty-four hours (MDA-IBC3 cells) or forty-eight hours (SUM149) after transfection, 1500 cells for MDA-IBC3 and 1000 cells for SUM149 were seeded into 10-cm Petri dishes containing Hams F-12 (10% FBS, 0.1% antibiotic/antimycotic solution, 0.001% insulin from bovine pancreas, and 0.005% hydrocortisone), and incubated at 37° C. Twelve days (SUM149 cells) or 19 days (MDA-IBC3 cells) later, colony-forming cells were stained with 0.5% crystal violet solution. Colonies (with at least 50 cells) were counted under a light microscope (Olympus CKX41) in five random fields with a total magnification of 10×.
(§1) For cell viability, SUM149 (5.0×10^4 cells/mL) were seeded in 96-well plates. Twenty-four hours later, cells were treated with serial dilutions (0.01 μM, 0.1 μM, 1.0 μM, 10 μM, and 100 μM, final concentrations) of the LCN2 inhibitors. Seventy-two hours after treatment, cell viability was performed as above described, taking the DMSO (1%) treated OD values as the normalization control. For colony formation assays, SUM149 cells (5.0×10^4 cells/mL), MCF7 (4.5×10^4 cells/mL), MCF7-LCN2 (4.5×10^4 cells/mL), or MCF7-EV (4.5×10^4 cells/mL) were seeded into 24-well plates and incubated at 37° C. Twenty-four hours later, LCN2 inhibitors bought to Asinex corporation (North chestnut, NC) were dissolved in DMSO (0.2%) and added to the cells at 10 μM, 1 μM, and 0.1 μM (final concentrations). NT cells and DMSO (0.2%) treated cells were used as controls. SUM149 (500 cells) and MCF7 (3,000 cells) cells were seeded in 6-well plates per treatment for colony formation assays.

MCF7-LCN2 cells = assay: Colony formation assay, MCF7-LCN2 cells; type: cell-based, human; conditions: vs untreated cells
Description: (§2) Ectopic LCN2 expression was performed in breast cancer MCF7 cells. Human LCN2 open reading frame (LCN2ORF) (RC207685, OriGene, Rockville, MD) or empty vector pCMV6-Entry (MCF7-EV) (PS100001, OriGene, Rockville, MD was stable transfected into MCF7 cells. MCF7 cells (4.0×10^4 cells/mL) were seeded in 6-well plates and incubated at 37° C. Twenty-four hours later, 5 μg of LCN2-ORF were mixed with Lipofectamine 2000 RNAiMax transfection reagent (Life Technologies) at a 1:1 (v/v) (plasmid: transfection reagent) in serum and antibiotic-free Opti-MEM medium (Life Technologies) and incubated at 37° C. Six hours later medium was replaced with MCF7 culture media and incubated at 37° C. Forty-eight hours later the antibiotic neomycin was added at a final concentration of 1.8 mg/mL for the selection of transduced MCF7 cells. After 2-3 weeks, independent colonies were picked and cultured separately as independent clones.
as §1

SUM149 cells [2] = assay: Cell viability, Alamar Blue, SUM149 cells; type: cell-based; conditions: Homo sapiens, 72 hours, vs DMSO, read-out: reduction of cell viability
Description: MDA-IBC3 cells (5.5×10^4 cells/mL) or SUM149 (5.0×10^4 cells/mL) were seeded in 96-well plates. Twenty-four hours later, cells were transiently transfected with serial dilutions of LCN2-siRNA and NC-siRNA (12.5 nM, 25 nM, 50 nM, and 100 nM final concentrations) with Lipofectamine 2000 RNAiMax. Seventy-two hours after transfection, the medium was removed, and cell viability was measured using Alamar blue dye (Invitrogen, CA, USA) as previously described by. Optical density (OD) values were obtained spectrophotometrically in a plate reader (Bio-Rad) after 3 hours of dye incubation. In all cases, percentages of cell viability were obtained after blank OD subtraction, taking the untreated cells values as a normalization control.
For cell viability, SUM149 (5.0×10^4 cells/mL) were seeded in 96-well plates. Twenty-four hours later, cells were treated with serial dilutions (0.01 μM, 0.1 μM, 1.0 μM, 10 μM, and 100 μM, final concentrations) of the LCN2 inhibitors. Seventy-two hours after treatment, cell viability was performed as above described, taking the DMSO (1%) treated OD values as the normalization control. For colony formation assays, SUM149 cells (5.0×10^4 cells/mL), MCF7 (4.5×10^4 cells/mL), MCF7-LCN2 (4.5×10^4 cells/mL), or MCF7-EV (4.5×10^4 cells/mL) were seeded into 24-well plates and incubated at 37° C. […]

p-Akt = assay: Akt/p-Akt measurements by Western blot; type: cell-based, human; conditions: SUM149 cells; for total Akt protein levels: all doses and time-points tested
Description: Cell lysates were collected on ice using lysis buffer (1% Triton X, 150 mM NaCl, 25 mM Tris HCl,0.4 mM NaVO4, 0.4 mM NaF and protease inhibitor cocktail from Sigma, St. Louis, MO, USA) and vortexed periodically for 30 min. Lysates were centrifuged for 15 min at 4° C., and supernatants were collected. Total protein concentrations were determined using Bio-Rad DC Protein Assay reagents (Bio-Rad) following the manufacturer's protocol. Equal amounts of protein for each sample (40 μg to 50 μg per lane) were separated by SDS-PAGE, blotted onto nitrocellulose membranes, blocked with 5% non-fat milk, and probed with the appropriate dilution of the corresponding primary antibody. Once incubated with the primary antibody, membranes were rinsed and incubated with the corresponding HRP-conjugated secondary antibody. Bound antibodies were detected using an enhanced chemiluminescence substrate followed by autoradiography using a FluorChem™ 8900 (Alpha Innotech Corporation, San Leandro, CA, USA). Primary antibodies: anti-LCN2 (AF1757) (24 kDa), (R&D System, MN, USA); Caspase 9 (9502) (47 kDa), Caspase 3 (9665) (35 kDa), Cleaved Caspase 9 (20750) (37 kDa), Cleaved Caspase 3 (9664) (17/19 kDa), PARP-1 (46D11) (89,116 kDa), CDK4 (D9G3D) (30 kDa), CDK6 (DCS83) (36 kDa), Cyclin E1 (HE12) (48 kDa), Cyclin E2 (4132) (48 kDa), p21/Waf1/Cip1 (12D1) (21 kDa), p27/Kip1 (D69C12) (27 kDa), Akt (4685) (60 kDa), p-Akt (Ser473) (4060) (60 kDa) (Cell Signaling, Danvers, MA, USA); anti-β-actin (42 kDa) (Sigma). Secondary antibodies: anti-goat IgG horseradish peroxidase (HRP) (HAF 109) (R&D Systems), anti-mouse and anti-rabbit IgG (HRP) (Cell Signaling).
SUM149 cells (5.0×10^4 cells/mL) were seeded in 10-cm Petri plates and incubated at 37° C. Twenty-four hours later, cells were treated with the LCN2 inhibitors ZINC00784494 and ZINC00640089 at 10 μM and 1 μM concentrations. NT and DMSO (0.2% final concentration) treated cells were used as controls. Cell pellets of each condition were collected at 15 minutes, 1 hour, and 24 hours after drug treatment. The p-AKT Akt and Akt protein levels were assessed by Western blots as above described.

MCF7-EV cells = assay: Colony formation assay, MCF7-EV cells; type: cell-based, human; conditions: 0.1 μM, 1 μM and 10 μM
Description: as §2
For cell viability, SUM149 (5.0×10^4 cells/mL) were seeded in 96-well plates. Twenty-four hours later, cells were treated with serial dilutions (0.01 μM, 0.1 μM, 1.0 μM, 10 μM, and 100 μM, final concentrations) of the LCN2 inhibitors. Seventy-two hours after treatment, cell viability was performed as above described, taking the DMSO (1%) treated OD values as the normalization control. […]

increase of caspase-3 activity (Caspase-3) | Structure (SMILES) | reduction in number of colonies formed (SUM149 cells [1]; 10 μM) [%] | decrease in colony formation (MCF7-LCN2 cells; 0.1 μM) [%] | decrease in colony formation (MCF7-LCN2 cells; 1 μM) [%] | decrease in colony formation (MCF7-LCN2 cells; 10 μM) [%] | cytotoxicity at 10 µM (SUM149 cells [2]) [%] | p-AKT protein levels (p-Akt; 10 μM and 1 μM) | total Akt protein levels (p-Akt) | reduction in number of colonies formed (SUM149 cells [1]; 1 μM) [%] | p-Akt protein levels (p-Akt; 10 μM and 1 μM, 15 minutes and 1 hour after treatment, vs DMSO) | p-Akt protein levels (p-Akt; 24 hours after treatment) | colony formation (MCF7-EV cells)
two-fold increase | CC(=O)O[C@@]12CO[C@@H]1C[C@H](O)[C@@]1(C)C(=O)[C@H](O)C3=C(C)[C@@H](OC(=O)[C@H](O)[C@@H](NC(=O)OC(C)(C)C)c4ccccc4)C[C@@](O)([C@@H](OC(=O)c4ccccc4)[C@H]21)C3(C)C [Docetaxel] | – | – | – | – | – | – | – | – | – | – | –
– | O=C(NC(Nc1ncccn1)C(=O)c1ccccc1)c1ccccc1 (stereo not drawn) [ZINC00230567] | 62 | – | – | – | – | – | – | – | – | – | –
– | O=C(CN1C(=O)c2cccc3cccc1c23)Nc1ccccc1C(F)(F)F [ZINC00640089] | 42 | 24 | 54 | 57 | 35 | reduced p-Akt in a dose-dependent manner; also recorded: reduction | unaltered | – | – | – | –
– | CC(=O)c1cccc(Nc2nc(-c3cc4ccccc4oc3=O)cs2)c1 [ZINC00784494] | 37 | 23 | 41 | 49 | 57 | reduced p-Akt in a dose-dependent manner | unaltered | 43 | reduced | not observed | did not cause any effect
– | Cc1cc(-c2ccccc2)nc2cc(C(=O)N3CCCc4ccccc43)nn12 [ZINC00829534] | 41 | – | – | – | – | – | – | – | – | – | –
